{"source": "patent US20220034873A1", "about": "“POLYMERIC CHROMOPHORES, COMPOSITIONS COMPRISING THE SAME, AND METHODS OF PREPARING AND USING THE SAME” (North Carolina State University, priority 2018, published 2022)", "key": {"[1]": {"test": "Absorption and emission spectra of dyes D1-D3 and dye-loaded copolymers F1-F3", "format": "physicochemical", "from_the_text": "Measurements of Absorption and Emission Spectra. The target dye-loaded copolymers F1-F3 were then subjected to investigations of their spectroscopic properties in both organic solvents and aqueous solution. […] Attaching to the 120-kDa amphiphilic copolymer drastically enhances the water solubility of BODIPY D1 and chlorin D2 without strong perturbation on the spectroscopic properties. The emission band for F1 and F2 in water remains the same as the ones measured in organic solutions, showing minimal dye-dye interaction is involved in aqueous solution of F1 and F2 at μM concentration. […] This negative result may be because of the inappropriate size of the copolymer backbone. Larger polymers may be required to encapsulate large hydrophobic chromophores like the phthalocyanine D3.\nGeneral Methods. All chemicals obtained commercially were used as received unless otherwise noted. Reagent-grade solvents (CH2Cl2, THF, methanol) and HPLC-grade water were used as received. NMR data was measured in a solution of CDCl3 unless otherwise noted. Noncommercial compounds 1, 2, and 4 were prepared following literature procedures. Analytical SEC experiments were performed with PLgel 10000 Å SEC column, eluted with ACS grade THF (stablized with 400 ppm of BHT) at 35° C. with a flow rate at 1 mL/min. Samples were detected with Agilent 1260 infinity refractive index detector. Absorption spectra were measured on Agilent 8453 and Shimadzu UV1800 instruments using dilute […] solutions of the compound in UV transparent (e.g., quartz) cuvettes versus a solvent blank at room temperature."}, "[2]": {"details": "cited from earlier work"}}}
{"molecule": "Cc1cc(C)c(C2=C3C=CC=[N+]3[B-](F)(F)n3cc(C#CCCCCC(=O)NN)cc32)c(C)c1", "note": "[Polymer D1, 2-[6-(N-Aminocarbamoyl)hex-1-yn-1-yl]-8-mesityl-4,4-difluoro-4-bora-3a,4a-diaza-s-indacene]", "values": [{"measurement": "λabs max", "setting": "[1]; in CH2Cl2, room temperature", "result": 543, "unit": "nm"}]}
{"molecule": "Cc1cc(C)c(-c2c3nc(c(-c4ccc(C(=O)NN)cc4)c4ccc(cc5nc(cc6ccc2[nH]6)CC5(C)C)[nH]4)C=C3)c(C)c1", "note": "[Polymer D2, 5-[4-(N-Aminocarbamoyl)phenyl]-10-Mesityl-18,18-dimethylchlorin]", "values": [{"measurement": "λabs max", "setting": "[1]; in CH2Cl2, room temperature", "result": 640, "unit": "nm"}]}
{"molecule": "CCN(CC)c1ccc2c(c1)Oc1cc(N(CC)CC)ccc1C21c2ccccc2C(=O)N1N", "note": "[Rhodamine-B hydrazide]", "values": [{"measurement": "change in absorption or fluorescence spectra", "setting": "[2]; only with Cu(II) and Hg(II) among the cations tested, aqueous solution", "result": "significant change in absorption or fluorescence spectra"}, {"measurement": "Cu(II) concentration detected quantitatively", "setting": "[2]; selective detection of Cu(II) in aqueous solution", "result": "10^−7 M"}]}
{"molecule": "CCCCCCCc1cc2c(cc1CCCCCCC)-c1nc-2nc2[nH]c(nc3nc(nc4[nH]c(n1)c1cc(CCCCCCC)c(CCCCCCC)cc41)-c1cc(C#Cc4ccc(CC(=O)NN)cc4)ccc1-3)c1cc(CCCCCCC)c(CCCCCCC)cc21", "note": "[Polymer D3, 2-[4-(N-Aminocarbamoyl)methylphenylethynyl]-9,10,16,17,23,24-hexaheptylphthalocyanine]", "values": [{"measurement": "λabs max", "setting": "[1]; in toluene", "result": 702, "unit": "nm"}]}
